# Laboratory results taken from PubChem BioAssay (NCI).
#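 Following 48 hours of exposure in 96-well plates, responses at five concentrations were used to interpolate endpoints linearly. TGI marks complete inhibition of growth.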
# Legend:
# Experiment in all cases: DTP human tumour cell line panel, 48 h
# A498 renal = system: A498 renal
# T-47D breast = system: T-47D breast
# MDA-MB-435 = system: MDA-MB-435
# DU-145 prostate = system: DU-145 prostate
# OVCAR-5 ovarian = system: OVCAR-5 ovarian
# HCT-15 colon = system: HCT-15 colon
# HOP-92 NSCLC = system: HOP-92 NSCLC
# SK-OV-3 ovarian = system: SK-OV-3 ovarian
# MOLT-4 leukemia = system: MOLT-4 leukemia
# HT29 colon = system: HT29 colon
Structure (SMILES),TGI (A498 renal) [µM],TGI (T-47D breast) [µM],TGI (MDA-MB-435) [µM],TGI (DU-145 prostate) [µM],TGI (OVCAR-5 ovarian) [µM],TGI (HCT-15 colon) [µM],TGI (HOP-92 NSCLC) [µM],TGI (SK-OV-3 ovarian) [µM],TGI (MOLT-4 leukemia) [µM],TGI (HT29 colon) [µM]
CCCCCCNC(=O)CCC(NC(=O)c1ccc(N(C)Cc2cnc3nc(N)nc(N)c3n2)cc1)C(=O)NCCCCCC (stereo not given),> 100,> 100,> 100,> 100,> 100,> 100,> 100,37.2,> 100,> 100
CSCCCS/C1=C/CCCCCCCCCC1,> 100,> 100,> 100,> 100,> 100,> 100,> 100,> 100,> 100,> 100
COC(=O)/C=C\C(C#N)(C#N)N=Cc1ccccc1,33.1,3.88,5.22,31.4,38.7,8.79,3.74,32.4,3.85,19.4
COc1cc(C2SC(C)C(=O)N2c2ccc(-c3csc(NS(=O)(=O)c4ccc(Cl)c(OC)c4)n3)cc2)ccc1O (stereo not given),> 100,> 100,> 100,> 100,> 100,> 100,> 100,> 100,> 100,> 100
COc1ccc(/C=C/C(=O)c2cc(C(C)(C)C)c(O)c(C(C)(C)C)c2)cc1OC,> 79.7,24.4,21.2,> 70.3,> 85.8,> 100,> 100,> 100,> 49.6,60
CCOC(=O)c1nc2ccccc2nc1Oc1ccc(C(=O)OC)cc1,> 100,> 100,> 100,> 100,> 100,> 100,> 100,> 100,> 100,> 100
COC(=O)CCc1ccc2c(c1)C(=O)CC2,> 100,> 100,> 100,> 100,> 100,> 100,> 100,> 100,> 100,> 100
O=[N+]([O-])c1ccc(C(Nc2ccccc2)P(c2ccccc2)c2ccccc2)cc1 (stereo not given),> 100,> 100,> 100,> 100,> 100,> 100,> 100,> 100,> 100,> 100
O=C(NC1CCCCC1)c1cc2ccccc2cc1O,78.3,> 100,> 100,> 100,–,65.1,65.1,> 100,–,37
Brc1ccc2c3c1[C@H]1O[C@H]1c1cccc(c1-3)[C@@H]1O[C@H]21,41.1,26.8,29.4,25.6,37.2,49.1,38.3,35.1,> 100,34.7
CC1(C)C(=O)c2ccccc2OC1N1CCN(C2Oc3ccccc3C(=O)C2(C)C)CC1 (stereo not given),> 100,> 100,> 100,> 100,> 100,> 100,> 100,> 100,> 100,> 100
Cc1ccc(-n2cc(-c3ccc(Cl)cc3)c3c(N/N=C4\SCC(=O)N4C)ncnc32)cc1,31.3,> 100,40,> 100,> 100,> 100,8.24,13.8,> 100,> 100
CC(=O)OCc1cncn1S(=O)(=O)c1ccc(C)cc1,–,> 100,> 78.9,> 100,> 100,> 100,> 100,> 100,> 100,> 100
Cc1ccc2c(=O)c(C(=O)Nn3c(C)csc3=S)c[nH]c2n1,> 100,> 100,> 100,> 100,> 100,> 100,–,–,> 100,> 100
Oc1ccc(Cl)cc1-c1cc(-c2ccccc2)nc(NCN2CCCCC2)n1,> 100,> 100,> 100,> 100,> 100,> 100,> 100,> 100,> 100,> 100
O=C(O)C[C@@H]1[C@@H](O)[C@@H](O)CN2C(=O)c3ccccc3[C@H]12,> 100,> 100,> 100,> 100,> 100,> 100,–,> 100,> 100,> 100
CCOC(=O)c1sc2nc(SC)nc3c2c1NCN3c1ccc(F)c(F)c1,35.6,> 100,41.7,> 100,> 100,> 100,83,43.5,> 100,> 100
CCCC(O)c1cn(C(NC(=O)c2ccccc2)P(=O)(OCC)OCC)nn1 (stereo not given),> 100,> 100,> 100,> 100,–,> 100,> 100,–,> 100,> 100
COC(OC)C1OCC(n2cc(F)c(=O)[nH]c2=O)C1O (stereo not given),> 100,> 100,> 100,> 100,> 100,> 100,> 100,> 100,> 100,> 100
C(=Nc1ccc(-c2nc3ccccc3[nH]2)cc1)c1ccc[nH]1,> 100,> 100,> 100,> 100,> 100,> 100,> 100,–,> 100,> 100
O=C(CCCCCC(=O)N1CC(CCl)c2ccc([N+](=O)[O-])cc21)N1CC(CCl)c2ccc([N+](=O)[O-])cc21 (stereo not given),> 100,> 100,> 100,> 100,> 100,> 100,> 100,> 100,> 100,–
